We go through 14 molecules from PubChem BioAssay (NCI).

SMILES strings stand for the structures.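 Interpolation was linear, between the two tested concentrations surrounding the appropriate level; five concentrations were tested over 48 hours in 96-well plates. Abbreviation: GI50, concentration required for 50% inhibition of growth. The concentration for full growth arrest is given as TGI.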 Where only a bound is given, the exact number is not on record here.

Common to all, as to assay: NCI anticancer screen, dose series, 48 h
For assay [1], the system named is 786-0 renal.
For assay [2], the system named is NCI-H23 lung.
The test system of assay [3] is HOP-62 NSCLC.
The subject of assay [4] is KM12 colon.
In assay [5] the test system is SK-MEL-5 melanoma.
Assay [6] deals with SW-620 colon.
The subject of assay [7] is UO-31 renal.
Assay [8] deals with SNB-19 CNS.
The subject of assay [9] is SF-268 CNS.
The test system of assay [10] is IGROV1 ovarian.
Assay [11] deals with COLO 205 colon.
Assay [12] deals with HL-60(TB) leukemia.
The subject of assay [13] is OVCAR-8 ovarian.
The subject of assay [14] is MDA-N.
For assay [15], the system named is SF-539 CNS.
Assay [16] deals with HCT-116 colon.
The test system of assay [17] is HCC-2998 colon.
Assay [18] has as its system M14 melanoma.
For assay [19], the system named is LOX IMVI melanoma.

In the case of `COc1ccc2c(c1)/C(=C\c1c(Cl)[nH]c3cc(C)c(OC)cc13)C(=O)N2`, the TGI was 13 µM in [1]; 2.9 µM in assay [2]; 23 µM in assay [3]; 5.06 µM in assay [4]; 8.7 µM in [5]; over 40.1 µM in [6]. Moreover, the TGI in assay [7] came to 19.2 µM; in assay [8], 12.8 µM; in assay [9], 8.77 µM; in [10], 5.3 µM; in assay [11], 5.69 µM; in assay [12] it was 2.46 µM. Also, the TGI turned out to be 8.22 µM in [13]; 2.13 µM in assay [14]; 1.24 µM in assay [15]; 6.36 µM in assay [16]; 6.19 µM in assay [17]; 5.63 µM in assay [18]. This molecule yielded a TGI in assay [19] of 8.45 µM.
On to `O=C1OC(CCCN2CCCCC2)(c2ccccc2)CC12CCCC2` (configuration not stated), for which the TGI in [1] is over 100 µM; in assay [2], over 100 µM; in assay [3], over 100 µM; in [4] it was over 100 µM; in assay [5] it was 33.8 µM; in assay [6], over 100 µM. Moreover, the TGI in assay [7], in assay [8], in [9], in [10], in assay [11] and in assay [12] was over 100 µM throughout. For the same molecule, the TGI in assay [13] is over 100 µM; in assay [14], over 100 µM; in assay [15] it was over 92.1 µM; in assay [16], over 100 µM; in assay [17], over 100 µM; in [18] it was 34.3 µM. The TGI in assay [19] was over 100 µM.
On to `COC(=O)C1Cc2cc3c(cc2C1=O)CCC3` (configuration not stated), for which the TGI in assay [1], in [2], in [3], in [4], in assay [5] and in assay [6] was over 100 µM throughout. For the same molecule, the TGI in [7], in [8], in [9], in [10], in assay [11] and in [12] was over 100 µM throughout. For the same molecule, the TGI in assay [13], in [14], in [15], in assay [16], in assay [17] and in assay [18] was over 100 µM each time. The molecule also registered a TGI in [19] of over 100 µM.
Consider `N#Cc1c(-c2ccc(Cl)cc2)c2c(n(C3OC(CO)C(O)C(O)C3O)c1=S)CCCC2` (configuration not stated), for which the TGI was over 100 µM in [1]; over 100 µM in [2]; over 100 µM in assay [3]; over 100 µM in assay [4]; 80.3 µM in [5]; over 100 µM in [6]. In addition, the TGI is over 100 µM in assay [7]; over 100 µM in assay [8]; over 100 µM in assay [9]; over 100 µM in [10]; over 100 µM in assay [11]; 58.9 µM in assay [12]. For the same molecule, the TGI in [13], in assay [14], in [15], in [16], in assay [17] and in [18] was over 100 µM each time. In assay [19], this molecule registered a TGI of over 100 µM.
In the case of `CCOC(=O)/C=C(\C(=O)OCC)n1cc(C)c(=O)n(Cc2cn(CCCCOC(C)=O)nn2)c1=O`, the TGI is 16.5 µM in assay [1]; 27.8 µM in assay [2]; 37.4 µM in [3]; 33.3 µM in assay [4]; over 53.1 µM in [5]; 31.8 µM in assay [6]. The TGI in [7] came to 27.5 µM; in assay [8], 47.3 µM; in assay [9] it was 28.4 µM; in assay [10], 27.5 µM; in assay [11] it was 8.91 µM; in assay [12], 7.32 µM. Besides, the TGI was 21.2 µM in [13]; 50.9 µM in assay [14]; 5.17 µM in assay [15]; 27.6 µM in [16]; 34 µM in [17]; 27 µM in [18]. Besides, the TGI in assay [19] is 23.1 µM. Further, the GI50 in [6] was 5 µM.
Take `O=C(O)c1c2c(cc3c1CC(Cc1ccccc1)C3=O)CCC2` (configuration not stated): the TGI in [1], in assay [2], in assay [3], in [4], in assay [5] and in assay [6] was over 100 µM in each case. Further, the TGI in [7] is 30.5 µM; in [8], over 100 µM; in assay [9] it was over 100 µM; in assay [10], over 100 µM; in assay [11], over 100 µM; in assay [12] it was 42.3 µM. The TGI in assay [13], in assay [14], in assay [15], in assay [16], in assay [17] and in [18] was over 100 µM each time. The same molecule came in with a TGI in assay [19] of over 100 µM.
Take `OC(CNc1ccccn1)c1ccccc1` (configuration not stated): the TGI in assay [1], in assay [2], in [3], in assay [4], in assay [5] and in assay [6] was over 100 µM throughout. The TGI in [7], in assay [8], in assay [9], in assay [10], in [11] and in assay [12] was over 100 µM in each case. In addition, the TGI in assay [13], in [14], in assay [15], in assay [16], in [17] and in assay [18] was over 100 µM throughout. Besides, the TGI in [19] was over 100 µM.
As for `CCOC(=O)c1ccc(N=C/C=C(\Nc2ccc(C(=O)OCC)cc2)C23CC4CC(CC(C4)C2)C3)cc1`, the TGI in [1], in assay [2], in assay [3], in assay [4], in assay [5] and in assay [6] was over 100 µM throughout. In addition, the TGI in assay [7], in [8], in assay [9], in assay [10], in assay [11] and in assay [12] was over 100 µM throughout. For the same molecule, the TGI in [13], in [14], in assay [15], in [16], in assay [17] and in assay [18] was over 100 µM in each case. This molecule also came in with a TGI in assay [19] of over 100 µM.
As to `COC(=O)C1=C(OC(=O)/C(=C/c2ccccc2)c2ccc(Cl)cc2Cl)C(C(=O)OC)[C@@]2(O)[C@@H](C(=O)OC)[C@H](C)C[C@@H]1[C@@H]2C(=O)OC` (some centres not stated), the TGI in assay [1], in [2], in assay [3], in assay [4], in [5] and in assay [6] was over 100 µM each time. Besides, the TGI in assay [7], in assay [8], in assay [9], in [10], in [11] and in [12] was over 100 µM throughout. Further, the TGI in assay [13], in [14], in assay [15], in assay [16], in assay [17] and in assay [18] was over 100 µM each time. In [19], this molecule came in with a TGI of over 100 µM.
For the molecule `NC(N)=NS(=O)(=O)c1ccc(NNc2c3ccccc3nc3ccccc23)cc1`, the TGI in assay [1] was 25.5 µM; in [2] it was 36.4 µM; in assay [3], 40.1 µM; in assay [4] it was 28.6 µM; in assay [5], 22.3 µM; in [6], 33.7 µM. Moreover, the TGI was 66.7 µM in [7]; 37.3 µM in assay [8]; 34 µM in assay [9]; 81.7 µM in assay [10]; 33.2 µM in [11]; 43.9 µM in assay [12]. In addition, the TGI is 31.1 µM in [13]; 28.4 µM in assay [14]; 36.7 µM in [15]; 32.8 µM in assay [16]; 27.3 µM in assay [17]; 26.8 µM in [18]. This molecule returned a TGI in assay [19] of 18.2 µM.
Take `CS(=O)(=O)C(C#N)c1nc2ccccc2nc1Cl` (configuration not stated): the TGI was over 100 µM in assay [1]; over 100 µM in assay [2]; over 100 µM in assay [3]; over 58.2 µM in [4]; over 27.1 µM in assay [5]; over 100 µM in assay [6]. Also, the TGI in assay [7], in assay [8], in assay [9], in assay [10], in assay [11] and in assay [12] was over 100 µM each time. In addition, the TGI in [13] is over 100 µM; in [14], over 100 µM; in assay [15], over 65.9 µM; in [16] it was over 100 µM; in [17] it was over 100 µM; in assay [18] it was over 100 µM. Besides, in assay [19], the TGI was over 100 µM.
Take `N#Cc1ccc(-c2nc3c(N)ncnc3o2)cc1`: the TGI in assay [1], in [2], in assay [3], in [4], in assay [5] and in [6] was over 100 µM each time. Also, the TGI in assay [7], in [8], in assay [9], in assay [10], in [11] and in [12] was over 100 µM each time. The TGI in [13], in assay [14], in assay [15], in assay [16], in assay [17] and in assay [18] was over 100 µM each time. The TGI in assay [19] was over 100 µM.
With `CS(=O)(=O)Nc1ccc2ccccc2c1-c1c(NS(C)(=O)=O)ccc2ccccc12`, the TGI in [1], in assay [2], in [3], in assay [4], in assay [5] and in assay [6] was over 25 µM each time. Moreover, the TGI in assay [7], in assay [8], in [9], in assay [10], in assay [11] and in assay [12] was over 25 µM in each case. The TGI in assay [13], in assay [14], in assay [15], in [16], in assay [17] and in [18] was over 25 µM each time. In assay [19], this molecule showed a TGI of over 25 µM.
As to `COc1ccc2c(c1)CN1C(=N2)CSC1c1cccc(Br)c1` (configuration not stated), the TGI was 42.8 µM in [1]; 83.5 µM in [2]; over 100 µM in assay [3]; over 100 µM in [4]; 83.7 µM in assay [5]; over 100 µM in assay [6]. Besides, the TGI in [7] was over 100 µM; in assay [8], over 100 µM; in assay [9], over 100 µM; in assay [10] it was over 100 µM; in [11] it was over 100 µM; in [12], 22.3 µM. Besides, the TGI was over 100 µM in [13]; over 100 µM in [14]; over 100 µM in assay [15]; over 100 µM in [16]; 57.8 µM in [17]; over 100 µM in assay [18]. Further, the TGI in assay [19] is over 100 µM.
